Test results taken from ChEMBL document CHEMBL1201862, “PubChem BioAssay data set” (2004).
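Five concentrations, 48 hours, 96-well plates. GI50 marks 50% less growth.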 Calls of active or inactive are those of the source. Cut-off read from the data, not from the text of the source: active = GI50 up to about 1.1 µM and inactive = higher.

Columns and labels:
Assay in all cases: NCI-60 cell line screen, 48 h
[1] = system: HOP-62
[2] = system: OVCAR-4
[3] = system: RXF 393
[4] = system: CCRF-CEM
[5] = system: M14
[6] = system: NCI-H522
[7] = system: SF-268
[8] = system: A498
[9] = system: SNB-75
[10] = system: 786-0
[11] = system: LOX IMVI
[12] = system: IGROV-1
[13] = system: NCI-H23
[14] = system: SK-MEL-2

Measured: GI50

Nc1nc(-c2ccccc2)cc(-c2ccccc2O)n1
inactive: [1] 25.1 µM | [2] 51.6 µM | [3] 27.3 µM | [4] 34 µM | [5] 81.1 µM | [6] 22.9 µM | [7] 24 µM | [8] 40.7 µM | [9] 36.6 µM | [10] 48.6 µM | [11] 31.8 µM | [12] 49.4 µM | [13] 43.3 µM

O=C(Cc1nc2ccccc2s1)C(=O)Nc1cccc(Cl)c1
inactive: [1] > 100 µM | [2] > 100 µM | [3] > 100 µM | [4] > 100 µM | [5] > 100 µM | [6] > 100 µM | [7] > 100 µM | [8] > 100 µM | [14] > 100 µM | [9] 48.9 µM | [10] > 100 µM | [11] > 100 µM | [12] > 100 µM | [13] > 100 µM

COc1cc(CCCC(O)COc2cccc3c2C2(O)CCCCCC32)cc(OC)c1 (stereo not given)
inactive: [1] 15 µM | [2] 18.2 µM | [3] 24.8 µM | [4] 25.8 µM | [5] 17.5 µM | [6] 24.9 µM | [7] 17.9 µM | [8] 19.9 µM | [14] 20.7 µM | [9] 12.1 µM | [10] 15.1 µM | [12] 15.2 µM | [13] 16.9 µM

Cc1cccc(C)c1NC(=O)C1C(=O)N(c2c(C)cccc2C)C(=O)/C1=N\N (stereo not given)
inactive: [1] > 100 µM | [2] > 100 µM | [3] > 100 µM | [4] > 100 µM | [5] > 100 µM | [6] > 100 µM | [7] > 100 µM | [8] > 100 µM | [14] > 100 µM | [9] > 100 µM | [10] > 100 µM | [11] > 100 µM | [12] > 100 µM | [13] > 100 µM

N#CC1(Cc2ccccc2[N+](=O)[O-])c2ccccc2C2C(N1C(=O)c1ccccc1)C2(Cl)Cl (stereo not given)
inactive: [2] 13.2 µM | [3] > 100 µM | [4] > 100 µM | [5] > 100 µM | [6] > 100 µM | [7] > 100 µM | [8] 78 µM | [14] > 100 µM | [9] 52.6 µM | [10] > 100 µM | [11] > 100 µM | [12] > 100 µM | [13] > 100 µM

Cc1nc2sccn2c1C(=O)NC(=O)Nc1ccc(Cl)cc1
inactive: [1] 41.3 µM | [2] > 100 µM | [3] 37.8 µM | [4] > 100 µM | [5] > 100 µM | [6] 57 µM | [7] 39.6 µM | [8] > 100 µM | [14] > 100 µM | [9] 24.3 µM | [10] 48.2 µM | [11] > 100 µM | [12] > 100 µM | [13] 35.7 µM

CC(=O)OCC1OC(OC2C(COC(C)=O)OC(Sc3ccccc3C)C(OC(C)=O)C2OC(C)=O)C(OC(C)=O)C(OC(C)=O)C1OC(C)=O (stereo not given)
inactive: [1] > 100 µM | [2] > 100 µM | [3] > 100 µM | [5] > 100 µM | [6] > 100 µM | [7] > 100 µM | [8] > 100 µM | [14] > 100 µM | [9] > 100 µM | [10] > 100 µM | [12] > 100 µM | [13] > 100 µM

O=CC1=CCCC2(C1)OCCO2
inactive: [1] > 100 µM | [2] > 100 µM | [3] > 100 µM | [4] > 100 µM | [5] > 100 µM | [6] > 100 µM | [7] > 100 µM | [8] > 100 µM | [14] > 100 µM | [9] 4.95 µM | [10] > 100 µM | [11] > 100 µM | [12] > 100 µM | [13] > 100 µM

CC1(C)N=C(c2ccccn2)C(c2ccccn2)=NC1(C)C
inactive: [2] > 100 µM | [3] > 100 µM | [4] > 100 µM | [5] > 100 µM | [7] > 100 µM | [8] > 100 µM | [14] > 100 µM | [10] > 100 µM | [11] > 100 µM | [12] > 100 µM

CCOC(=N)CC(=O)Nc1cccc(Cl)c1
inactive: [1] > 100 µM | [2] > 100 µM | [3] > 100 µM | [4] > 100 µM | [5] > 100 µM | [6] > 100 µM | [7] > 100 µM | [8] > 100 µM | [14] > 100 µM | [9] > 100 µM | [10] > 100 µM | [11] > 100 µM | [12] > 100 µM | [13] 4.9 µM

Cc1cccc(-c2nnc3s/c(=C\c4ccc5c(c4)OCO5)c(=O)n23)c1
inactive: [1] > 100 µM | [2] > 100 µM | [3] > 100 µM | [4] > 100 µM | [5] > 100 µM | [6] > 100 µM | [7] > 100 µM | [8] > 100 µM | [14] > 100 µM | [9] 26.9 µM | [10] > 100 µM | [11] > 100 µM | [12] > 100 µM | [13] > 100 µM

Nc1c2ccccc2nc2c(C(=O)Nc3ccc(S(N)(=O)=O)cc3)cccc12
inactive: [1] > 100 µM | [2] > 100 µM | [3] > 100 µM | [4] 12.5 µM | [5] > 100 µM | [6] 21.8 µM | [7] 42.3 µM | [8] > 100 µM | [14] > 100 µM | [9] 61.8 µM | [10] > 100 µM | [11] 40.1 µM | [12] > 100 µM | [13] > 100 µM

[N-]=[N+]=C1C(=O)C2CC3CC1CC2C3 (stereo not given)
inactive: [1] > 100 µM | [2] > 100 µM | [3] > 100 µM | [4] > 100 µM | [5] > 100 µM | [6] > 100 µM | [7] > 100 µM | [8] > 100 µM | [14] > 100 µM | [9] > 100 µM | [10] > 100 µM | [11] > 100 µM | [12] > 100 µM | [13] > 100 µM

CC1=C(C(=O)Nc2ccccc2C)C(c2ccccc2)C(C(=O)Nc2ccccc2C)=C(C)N1
inactive: [1] 40.6 µM | [2] 28.5 µM | [3] 23.9 µM | [4] 20.9 µM | [5] 39.4 µM | [6] 28.6 µM | [7] > 100 µM | [8] 29.7 µM | [14] 26.6 µM | [9] 35.6 µM | [10] 68.9 µM | [11] 16 µM | [12] 42.7 µM | [13] 23.7 µM

COC(=O)[C@]12CCC(C)[C@H](C)[C@H]1C1=CCC3[C@@]4(C)CC[C@H](OC(C)=O)C(C)(C)C4CC[C@@]3(C)C1(C)C(O)C2 (stereo not given in full)
inactive: [1] > 100 µM | [2] > 100 µM | [4] 89.3 µM | [5] > 100 µM | [6] > 100 µM | [7] > 100 µM | [8] > 100 µM | [14] > 100 µM | [9] 45.2 µM | [10] > 100 µM | [11] 74 µM | [12] > 100 µM | [13] > 100 µM
